Source: patent US20130267551A1, “SUBSTITUTED HYDROGENATED THIENO-PYRROLO[3,2-C]PYRIDINE, LIGANDS, A PHARMACEUTICAL COMPOSITION AND A METHOD FOR USING THE ABOVE” (ALLA CHEM, LLC, priority 2010, published 2013)
Structures can show the parent of a compound that is named as a salt. Where two headings read alike, the source gives them in different places.

How the values were obtained:
Serotoninergic 5-HT2C = target: T1, Serotoninergic 5-HT2C (Homo sapiens, UniProt P28335); assay: competitive radioligand binding, Serotoninergic 5-HT2C; details: read-out: radio-labelled ligand displacement, Serotoninergic 5-HT2C
T1 sequence (P28335 33-458): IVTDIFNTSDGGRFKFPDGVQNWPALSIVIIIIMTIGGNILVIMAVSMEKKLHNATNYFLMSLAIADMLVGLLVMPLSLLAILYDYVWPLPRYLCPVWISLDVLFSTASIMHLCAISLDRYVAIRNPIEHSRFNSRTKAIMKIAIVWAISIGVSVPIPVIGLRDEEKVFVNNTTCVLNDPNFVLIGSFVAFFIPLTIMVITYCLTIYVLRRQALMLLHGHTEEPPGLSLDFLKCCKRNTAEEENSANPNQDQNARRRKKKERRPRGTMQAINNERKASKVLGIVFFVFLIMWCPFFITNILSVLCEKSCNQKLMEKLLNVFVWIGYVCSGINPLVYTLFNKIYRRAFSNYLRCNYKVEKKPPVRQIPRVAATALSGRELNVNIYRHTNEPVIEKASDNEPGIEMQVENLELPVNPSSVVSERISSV
Experimental: (§1) Profiles of pharmacological activity of thieno-pyrrolo[3,2-c]pyridines of the general formula 1. Biological activity test of compounds of the general formula 1 was carried out in the setting of competitive radioligand binding [I. Okun, S. Tkachenko, A. Khvat, et al., Current Alzheimer Research, 7(2), 97-112 (2010)], using a wide range of therapeutic targets including G-protein coupled receptors (GPCR), ion channels and neuromediator transporters. The tested activity was determined by quantitative measurement of radio-labelled ligand displacement by tested compounds of the general formula 1 at their concentration of 1 μM.

Serotoninergic 5-HT2A = Serotoninergic 5-HT2A (Homo sapiens, UniProt P28223); assay: competitive radioligand binding, Serotoninergic 5-HT2A; details: read-out: radio-labelled ligand displacement, Serotoninergic 5-HT2A
Sequence of Serotoninergic 5-HT2A (P28223 whole entry): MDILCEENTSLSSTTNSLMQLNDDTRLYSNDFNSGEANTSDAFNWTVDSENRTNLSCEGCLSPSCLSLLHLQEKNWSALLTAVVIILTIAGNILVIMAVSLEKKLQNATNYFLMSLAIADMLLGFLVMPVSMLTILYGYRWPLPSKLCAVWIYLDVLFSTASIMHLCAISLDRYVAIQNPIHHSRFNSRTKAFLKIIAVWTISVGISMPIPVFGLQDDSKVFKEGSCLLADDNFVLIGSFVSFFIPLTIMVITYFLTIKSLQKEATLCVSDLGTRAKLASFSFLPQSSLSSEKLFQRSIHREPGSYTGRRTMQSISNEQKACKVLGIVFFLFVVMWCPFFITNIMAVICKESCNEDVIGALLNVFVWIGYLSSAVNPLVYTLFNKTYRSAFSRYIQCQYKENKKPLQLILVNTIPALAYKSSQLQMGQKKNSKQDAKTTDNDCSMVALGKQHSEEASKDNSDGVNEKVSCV
Experimental: as §1

Adrenergic α1D = target: T2, Adrenergic α1D (Homo sapiens, UniProt P25100); assay: competitive radioligand binding, Adrenergic α1D; details: compound concentration of 1 μM; read-out: radio-labelled ligand displacement, Adrenergic α1D
T2 sequence (P25100 1-572): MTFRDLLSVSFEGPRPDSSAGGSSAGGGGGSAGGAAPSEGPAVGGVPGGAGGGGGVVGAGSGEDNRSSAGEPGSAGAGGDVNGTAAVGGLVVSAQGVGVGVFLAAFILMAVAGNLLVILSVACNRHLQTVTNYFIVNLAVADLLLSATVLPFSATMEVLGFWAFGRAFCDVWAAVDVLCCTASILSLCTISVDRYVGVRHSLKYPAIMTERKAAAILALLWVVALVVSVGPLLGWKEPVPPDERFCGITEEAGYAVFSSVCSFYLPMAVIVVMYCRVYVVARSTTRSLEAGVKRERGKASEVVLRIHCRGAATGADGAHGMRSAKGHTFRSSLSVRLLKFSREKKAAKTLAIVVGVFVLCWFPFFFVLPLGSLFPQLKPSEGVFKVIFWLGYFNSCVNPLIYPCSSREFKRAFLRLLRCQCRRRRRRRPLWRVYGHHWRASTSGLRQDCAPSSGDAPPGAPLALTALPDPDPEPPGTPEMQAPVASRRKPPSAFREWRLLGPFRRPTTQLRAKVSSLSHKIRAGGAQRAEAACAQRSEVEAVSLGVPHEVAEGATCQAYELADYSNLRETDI
Experimental: as §1

Adrenergic α1A = assay: competitive radioligand binding, Adrenergic α1A; details: compound concentration of 1 μM
Experimental: as §1

Serotoninergic 5-HT7 = Serotoninergic 5-HT7 (Homo sapiens, UniProt P34969); assay: competitive radioligand binding, Serotoninergic 5-HT7; details: compound concentration of 1 μM; read-out: radio-labelled ligand displacement, Serotoninergic 5-HT7
Sequence of Serotoninergic 5-HT7 (P34969 whole entry): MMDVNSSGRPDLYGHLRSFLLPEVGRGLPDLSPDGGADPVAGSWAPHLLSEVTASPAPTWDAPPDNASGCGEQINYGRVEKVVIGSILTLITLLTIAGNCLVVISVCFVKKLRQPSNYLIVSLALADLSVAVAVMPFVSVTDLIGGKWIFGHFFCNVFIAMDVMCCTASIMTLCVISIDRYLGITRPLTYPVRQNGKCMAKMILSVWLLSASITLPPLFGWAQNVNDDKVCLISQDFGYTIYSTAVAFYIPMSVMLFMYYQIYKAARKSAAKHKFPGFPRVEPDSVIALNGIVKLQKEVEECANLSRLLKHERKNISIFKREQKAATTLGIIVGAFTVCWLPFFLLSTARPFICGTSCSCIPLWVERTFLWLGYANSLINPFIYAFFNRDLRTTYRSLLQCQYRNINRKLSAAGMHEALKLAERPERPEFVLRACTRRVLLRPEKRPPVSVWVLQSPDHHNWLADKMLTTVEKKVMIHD
Experimental: as §1

[1] = test system: Therapeutic targets (Adrenergic, Dopaminergic, Histaminergic, Serotoninergic); assay: Profiles of pharmacological activity in competitive radioligand binding (whole panel); details: 1 μM, grades not defined
Experimental: as §1

male mice of BALB/c line [2] = assay: Passive Avoidance of mice in Shuttle Chamber (memory disturbed by Scopolamine); format: in vivo; details: intraperitoneally 30 minutes before training, in combination with Scopolamine
Experimental: Nootropic action (enhancement of memory disturbed by Scopolamine) of compounds of the general formula 1 in test “Passive Avoidance of mice in Shuttle Chamber”. Shuttle chamber (Ugo Basile, Italy) consisted of two sections was used. […] Sections were connected through a hole which could be overlapped by vertical door. The floor was made of transverse metal bars on which DC current impulses could be fed. Experiments were carried out in aged male mice of BALB/c line weighing 20-24 g. On the first day of experiment 30 minutes before training mice were injected intraperitoneally with physiological solution, (0.3 mg/kg) or Scopolamine in combination with compound 3.6(1).HCl, or Scopolamine in combination with compound 2.5(1).HCl. Each group consisted of 8 animals. Animals were placed in light section, and latent period of the first entry into the dark chamber was registered. Then the vertical door was closed and the animal was punished by 0.6 mA DC current for 3 seconds. After that the animal was taken back to its home cage. In 22-24 hours the same animal was placed again in light section of shuttle chamber and latent period of its first entry into dark section, total time of its stay in light section and number of entries into dark section was registered. Each monitoring lasted for 5 minutes. […]

male mice of BALB/c line [3] = assay: Mice behavior in tail suspension test; format: in vivo; details: after 4 days injections in dose of 0.1 mg/kg, 6 minutes
Experimental: Antidepressant action of compounds of the general formula 1 in test “Mice behavior in tail suspension test”. Experiments were carried out in aged male mice of BALB/c line weighing 20-24 g. Mice were suspended by tail with scotch tape on holder over horizontal surface at height of about 40 cm, and for 6 minutes of total duration of complete immobility episodes which is considered to be a measure of depressively-like state was registered. Automated computerized detection of motion with videosystem and Any-maze program were used in test.

Mice of SHK line = assay: Prepulse inhibition of startle response in mice (Apomorphine); details: 1 mg/kg, subcutaneously 60 minutes before the test
male mice of BALB/c line [4] = assay: Porsolt's Forced Swim Test; format: in vivo; details: after 4 days injections in dose 1 mg/kg, last 5 minutes of the test
Experimental: Antidepressant action of antagonists of the general formula 1 in Porsolt's Forced Swim Test. Test apparatus represented a plastic vessel filled with water up to height of 18 cm at 20-22° C. Experiments were carried out in aged male mice of BALB/c line weighing 20-24 g.
Mice were placed in water and for 15 minutes duration of immobile hanging in water so called behavioural despaire, which is considered to be a measure of depressively-like state, was registered. The last 5 minutes of the test were used for analysis. Automated computerized detection of motion with videosystem and Any-maze program were used in the test.

Compound | inhibition at 1 µM (Serotoninergic 5-HT2C; compound concentration of 1 μM) | inhibition at 1 µM (Serotoninergic 5-HT2A) | inhibition at 1 µM (Adrenergic α1D) | radio-labelled ligand displacement, Adrenergic α1A (Adrenergic α1A) | inhibition at 1 µM (Serotoninergic 5-HT7) | grade of the activity profile (poor / satisfactory / good) [1] | Nootropic action: training disturbed by Scopolamine (male mice of BALB/c line [2]) | Antidepressant action: duration of complete immobility (male mice of BALB/c line [3]) | inhibition at 1 µM (Serotoninergic 5-HT2C) | Antipsychotic activity: disturbance of prepulse inhibition of startle caused by Apomorphine (Mice of SHK line) | Antidepressant action: duration of immobile hanging in water (male mice of BALB/c line [4])
CC1Cc2c(c3sc(Cl)cc3n2C#Cc2cccc(F)c2)C(C)N1C (stereo not shown) [2.10(3)•HCl, 6,7,8-trimethyl-4-(3-fluorophenyl)ethynyl-2-chloro-5,6,7,8-tetrahydro-4H-thieno[2′,3′:4,5]pyrrolo[3,2-c]pyridine] | 31% | 43% | 11% | 21% | 33% | poor | – | – | – | – | –
Cc1cc2c(s1)c1c(n2Cc2ccccc2)CCN(C)C1.Cl [2.5(1)•HCl, 4-Benzyl-2,7-dimethyl-5,6,7,8-tetrahydro-4H-thieno[2′,3′:4,5]pyrrolo[3,2-c]pyridine hydrochloride] | – | 93% | 21% | 42% | 92% | – | improve training disturbed by Scopolamine | decrease the duration of complete immobility of mice | 84% | prevented disturbance of prepulse inhibition of startle caused by Apomorphine | decrease this index
Cc1cc2c3c(n(Cc4ccccc4)c2s1)CC1CCC3N1C (stereo not shown) [3.13(1)•HCl, 9-benzyl-2,10-dimethyl-4,5,6,7,8,9-hexahydro-4,7-epiminocyclohepta[b]thieno[3,2-d]pyrrole] | – | 95% | 43% | 61% | 79% | satisfactory | – | – | 81% | – | –
Cc1cc2c(s1)c1c(n2-c2cccc(F)c2)CCN(C)C1 [2.4(3)•HCl, 2,7-dimethyl-4-(3-fluorophenyl)-5,6,7,8-tetrahydro-4H-thieno[2′,3′:4,5]pyrrolo[3,2-c]pyridine] | 33% | 41% | 28% | 17% | 43% | poor | – | – | – | – | –
Cc1ccc(CCCn2c3c(c4scc(Cl)c42)CN(C)CC3)cn1 [2.12(5)•HCl, 7-methyl-4-[3-(6-methylpyridin-3-yl)propyl]-3-chloro-5,6,7,8-tetrahydro-4H-thieno[2′,3′:4,5]pyrrolo[3,2-c]pyridine] | 99% | 99% | 93% | 98% | 99% | good | – | – | – | – | –
Cc1cc2c3c(n(CCc4ccccc4)c2s1)CCN(C)C3.Cl [3.6(1)•HCl, 2,5-Dimethyl-8-(2-phenylethyl)-5,6,7,8-tetrahydro-4H-thieno[3′,2′:4,5]pyrrolo[3,2-c]pyridine hydrochloride] | – | 101% | 92% | 97% | 99% | – | improve training disturbed by Scopolamine | decrease the duration of complete immobility of mice | 99% | prevented disturbance of prepulse inhibition of startle caused by Apomorphine | decrease this index
Cc1cc2c3c(n(Cc4ccccc4)c2s1)CCN(C)C3.Cl [3.5(1)•HCl, 8-Benzyl-2,5-dimethyl-5,6,7,8-tetrahydro-4H-thieno[3′,2′:4,5]pyrrolo[3,2-c]pyridine hydrochloride] | – | 100% | 44% | 77% | 95% | – | – | – | 97% | – | –
Cc1ccc(Cn2c3c(c4sc(Cl)cc42)C(C)N(C)C(C)C3)cn1 (stereo not shown) [2.5(4)•HCl, 4-(6-methylpyridin-3-ylmethyl)-6,7,8-trimethyl-2-chloro-5,6,7,8-tetrahydro-4H-thieno[2′,3′:4,5]pyrrolo[3,2-c]pyridine] | 91% | 91% | 29% | 51% | 87% | satisfactory | – | – | – | – | –
Cc1cc2c(s1)c1c(n2CCc2ccccc2)CCN(C)C1.Cl [2.6(1)•HCl, 2,7-Dimethyl-4-(2-phenylethyl)-5,6,7,8-tetrahydro-4H-thieno[2′,3′:4,5]pyrrolo[3,2-c]pyridine hydrochloride] | – | 99% | 64% | 83% | 98% | – | – | – | 89% | – | –
